Experimental data from ChEMBL document CHEMBL3991601, “The target landscape of clinical kinase drugs” (Science, 2017).
pKd: −log10 of the molar value. The source made the active and inactive calls. Rule as the data show it, for most assays here: actives have a measured Kd and inactives only a lower limit.

Experiments:
[1] = target: Eukaryotic translation initiation factor 2-alpha kinase 1 (Homo sapiens, UniProt Q9BQI3)
Ephrin type-B receptor 3 = target: T1, Ephrin type-B receptor 3 (Homo sapiens, UniProt P54753)
T1 sequence (P54753 whole entry): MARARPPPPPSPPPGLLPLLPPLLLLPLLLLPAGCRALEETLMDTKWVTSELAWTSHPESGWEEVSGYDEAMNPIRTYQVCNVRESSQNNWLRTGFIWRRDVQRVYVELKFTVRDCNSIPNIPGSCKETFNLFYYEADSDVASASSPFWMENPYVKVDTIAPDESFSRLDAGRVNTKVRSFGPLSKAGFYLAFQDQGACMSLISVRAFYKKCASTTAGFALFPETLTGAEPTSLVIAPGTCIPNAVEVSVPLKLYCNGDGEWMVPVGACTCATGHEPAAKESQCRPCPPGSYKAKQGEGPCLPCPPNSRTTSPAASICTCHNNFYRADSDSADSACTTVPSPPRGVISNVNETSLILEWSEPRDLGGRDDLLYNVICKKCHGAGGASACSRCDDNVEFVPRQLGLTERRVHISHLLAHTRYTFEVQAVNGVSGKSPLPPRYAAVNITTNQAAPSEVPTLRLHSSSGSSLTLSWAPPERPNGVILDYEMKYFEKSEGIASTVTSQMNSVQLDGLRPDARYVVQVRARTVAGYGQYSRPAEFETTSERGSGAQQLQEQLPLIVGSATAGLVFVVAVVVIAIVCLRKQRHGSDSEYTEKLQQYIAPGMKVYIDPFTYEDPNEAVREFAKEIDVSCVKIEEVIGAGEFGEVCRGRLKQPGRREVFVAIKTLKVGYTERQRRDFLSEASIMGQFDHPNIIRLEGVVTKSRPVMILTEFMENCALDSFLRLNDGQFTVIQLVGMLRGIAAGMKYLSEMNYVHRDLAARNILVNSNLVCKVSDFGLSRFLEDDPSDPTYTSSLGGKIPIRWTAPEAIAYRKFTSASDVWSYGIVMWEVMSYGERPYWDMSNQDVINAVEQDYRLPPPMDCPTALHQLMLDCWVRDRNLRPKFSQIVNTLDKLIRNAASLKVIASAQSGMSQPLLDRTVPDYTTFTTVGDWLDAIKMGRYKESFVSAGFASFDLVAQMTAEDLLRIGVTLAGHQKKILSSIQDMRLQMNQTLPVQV

[2] = target: Ribosomal protein S6 kinase alpha-5 (Homo sapiens, UniProt O75582)
Ribosomal protein S6 kinase alpha-5, sequence (O75582 whole entry): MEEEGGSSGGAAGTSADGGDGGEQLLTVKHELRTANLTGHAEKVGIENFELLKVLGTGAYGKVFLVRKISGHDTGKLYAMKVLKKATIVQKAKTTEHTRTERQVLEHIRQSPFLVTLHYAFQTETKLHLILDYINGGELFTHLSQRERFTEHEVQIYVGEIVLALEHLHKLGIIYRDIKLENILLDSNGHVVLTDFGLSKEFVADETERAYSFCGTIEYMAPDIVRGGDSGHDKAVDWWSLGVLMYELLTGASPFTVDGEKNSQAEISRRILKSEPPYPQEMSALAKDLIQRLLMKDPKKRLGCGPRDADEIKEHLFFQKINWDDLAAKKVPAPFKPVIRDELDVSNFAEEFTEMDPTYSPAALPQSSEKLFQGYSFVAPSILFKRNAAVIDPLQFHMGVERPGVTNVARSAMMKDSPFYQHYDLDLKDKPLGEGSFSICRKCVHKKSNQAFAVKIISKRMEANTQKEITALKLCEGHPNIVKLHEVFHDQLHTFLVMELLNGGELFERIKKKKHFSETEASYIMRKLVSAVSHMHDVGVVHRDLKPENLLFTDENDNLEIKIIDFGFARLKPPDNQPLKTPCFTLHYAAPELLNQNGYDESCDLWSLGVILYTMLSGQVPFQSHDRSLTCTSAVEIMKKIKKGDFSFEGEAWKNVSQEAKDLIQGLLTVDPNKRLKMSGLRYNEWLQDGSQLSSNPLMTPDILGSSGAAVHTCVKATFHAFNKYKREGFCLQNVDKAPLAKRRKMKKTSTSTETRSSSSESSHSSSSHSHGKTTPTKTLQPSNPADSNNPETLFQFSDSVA

[3] = target: T2, Dynamin-like GTPase OPA1, mitochondrial (Homo sapiens, UniProt O60313)
T2 sequence (O60313 whole entry): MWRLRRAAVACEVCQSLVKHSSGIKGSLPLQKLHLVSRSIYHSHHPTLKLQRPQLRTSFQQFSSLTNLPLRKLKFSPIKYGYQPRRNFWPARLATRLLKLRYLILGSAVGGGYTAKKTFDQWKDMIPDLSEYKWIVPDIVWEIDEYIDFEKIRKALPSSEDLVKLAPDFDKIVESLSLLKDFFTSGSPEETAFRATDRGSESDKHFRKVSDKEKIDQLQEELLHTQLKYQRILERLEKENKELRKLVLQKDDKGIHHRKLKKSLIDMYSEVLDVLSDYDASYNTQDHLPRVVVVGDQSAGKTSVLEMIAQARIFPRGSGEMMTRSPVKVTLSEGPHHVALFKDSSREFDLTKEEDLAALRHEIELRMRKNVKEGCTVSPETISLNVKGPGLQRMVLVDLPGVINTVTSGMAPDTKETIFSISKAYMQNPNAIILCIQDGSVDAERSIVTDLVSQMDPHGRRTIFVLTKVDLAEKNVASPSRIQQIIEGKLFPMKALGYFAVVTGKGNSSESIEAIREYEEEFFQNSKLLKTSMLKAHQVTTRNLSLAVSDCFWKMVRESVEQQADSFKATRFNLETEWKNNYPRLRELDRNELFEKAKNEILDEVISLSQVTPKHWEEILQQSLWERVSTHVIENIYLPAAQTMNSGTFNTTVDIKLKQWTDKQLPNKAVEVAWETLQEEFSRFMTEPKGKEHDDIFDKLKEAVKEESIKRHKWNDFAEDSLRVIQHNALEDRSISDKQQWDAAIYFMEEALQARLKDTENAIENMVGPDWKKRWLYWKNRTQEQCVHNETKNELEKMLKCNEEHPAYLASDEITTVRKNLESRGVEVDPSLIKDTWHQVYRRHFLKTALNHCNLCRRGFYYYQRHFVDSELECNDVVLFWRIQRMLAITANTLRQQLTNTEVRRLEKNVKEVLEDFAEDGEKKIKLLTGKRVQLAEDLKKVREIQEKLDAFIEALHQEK

[4] = target: Mitotic checkpoint serine/threonine-protein kinase BUB1 (Homo sapiens, UniProt O43683)
Mitotic checkpoint serine/threonine-protein kinase BUB1, sequence (O43683 whole entry): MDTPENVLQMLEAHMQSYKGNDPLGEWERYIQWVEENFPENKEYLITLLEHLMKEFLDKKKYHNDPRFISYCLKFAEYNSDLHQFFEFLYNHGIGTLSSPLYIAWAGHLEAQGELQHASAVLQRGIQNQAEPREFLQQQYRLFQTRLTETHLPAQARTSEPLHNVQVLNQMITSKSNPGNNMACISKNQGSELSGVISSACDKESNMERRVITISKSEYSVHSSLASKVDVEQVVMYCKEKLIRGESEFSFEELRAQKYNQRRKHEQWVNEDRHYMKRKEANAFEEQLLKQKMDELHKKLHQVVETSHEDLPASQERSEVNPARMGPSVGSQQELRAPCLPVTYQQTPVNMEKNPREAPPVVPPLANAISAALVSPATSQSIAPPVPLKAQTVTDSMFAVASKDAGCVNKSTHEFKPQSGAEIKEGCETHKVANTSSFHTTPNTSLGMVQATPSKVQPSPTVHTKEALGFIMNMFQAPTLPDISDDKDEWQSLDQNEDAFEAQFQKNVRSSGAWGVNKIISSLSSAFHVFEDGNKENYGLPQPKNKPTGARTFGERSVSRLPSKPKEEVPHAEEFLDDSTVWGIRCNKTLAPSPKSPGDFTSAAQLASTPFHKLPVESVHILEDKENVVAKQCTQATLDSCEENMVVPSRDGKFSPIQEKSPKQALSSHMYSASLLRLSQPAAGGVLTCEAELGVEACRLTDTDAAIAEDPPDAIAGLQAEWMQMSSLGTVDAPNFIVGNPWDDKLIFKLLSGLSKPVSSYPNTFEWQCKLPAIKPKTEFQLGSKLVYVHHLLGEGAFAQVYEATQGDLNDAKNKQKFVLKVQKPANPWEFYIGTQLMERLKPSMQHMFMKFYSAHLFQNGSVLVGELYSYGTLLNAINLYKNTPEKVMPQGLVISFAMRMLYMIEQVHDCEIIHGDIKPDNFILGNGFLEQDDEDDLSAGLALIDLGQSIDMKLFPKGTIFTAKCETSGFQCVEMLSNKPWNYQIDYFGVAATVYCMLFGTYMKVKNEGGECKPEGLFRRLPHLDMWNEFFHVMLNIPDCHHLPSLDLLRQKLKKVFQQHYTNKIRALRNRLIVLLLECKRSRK

[5] = target: Mitogen-activated protein kinase kinase kinase 4 (Homo sapiens, UniProt Q9Y6R4)
Mitogen-activated protein kinase kinase kinase 4, sequence (Q9Y6R4 whole entry): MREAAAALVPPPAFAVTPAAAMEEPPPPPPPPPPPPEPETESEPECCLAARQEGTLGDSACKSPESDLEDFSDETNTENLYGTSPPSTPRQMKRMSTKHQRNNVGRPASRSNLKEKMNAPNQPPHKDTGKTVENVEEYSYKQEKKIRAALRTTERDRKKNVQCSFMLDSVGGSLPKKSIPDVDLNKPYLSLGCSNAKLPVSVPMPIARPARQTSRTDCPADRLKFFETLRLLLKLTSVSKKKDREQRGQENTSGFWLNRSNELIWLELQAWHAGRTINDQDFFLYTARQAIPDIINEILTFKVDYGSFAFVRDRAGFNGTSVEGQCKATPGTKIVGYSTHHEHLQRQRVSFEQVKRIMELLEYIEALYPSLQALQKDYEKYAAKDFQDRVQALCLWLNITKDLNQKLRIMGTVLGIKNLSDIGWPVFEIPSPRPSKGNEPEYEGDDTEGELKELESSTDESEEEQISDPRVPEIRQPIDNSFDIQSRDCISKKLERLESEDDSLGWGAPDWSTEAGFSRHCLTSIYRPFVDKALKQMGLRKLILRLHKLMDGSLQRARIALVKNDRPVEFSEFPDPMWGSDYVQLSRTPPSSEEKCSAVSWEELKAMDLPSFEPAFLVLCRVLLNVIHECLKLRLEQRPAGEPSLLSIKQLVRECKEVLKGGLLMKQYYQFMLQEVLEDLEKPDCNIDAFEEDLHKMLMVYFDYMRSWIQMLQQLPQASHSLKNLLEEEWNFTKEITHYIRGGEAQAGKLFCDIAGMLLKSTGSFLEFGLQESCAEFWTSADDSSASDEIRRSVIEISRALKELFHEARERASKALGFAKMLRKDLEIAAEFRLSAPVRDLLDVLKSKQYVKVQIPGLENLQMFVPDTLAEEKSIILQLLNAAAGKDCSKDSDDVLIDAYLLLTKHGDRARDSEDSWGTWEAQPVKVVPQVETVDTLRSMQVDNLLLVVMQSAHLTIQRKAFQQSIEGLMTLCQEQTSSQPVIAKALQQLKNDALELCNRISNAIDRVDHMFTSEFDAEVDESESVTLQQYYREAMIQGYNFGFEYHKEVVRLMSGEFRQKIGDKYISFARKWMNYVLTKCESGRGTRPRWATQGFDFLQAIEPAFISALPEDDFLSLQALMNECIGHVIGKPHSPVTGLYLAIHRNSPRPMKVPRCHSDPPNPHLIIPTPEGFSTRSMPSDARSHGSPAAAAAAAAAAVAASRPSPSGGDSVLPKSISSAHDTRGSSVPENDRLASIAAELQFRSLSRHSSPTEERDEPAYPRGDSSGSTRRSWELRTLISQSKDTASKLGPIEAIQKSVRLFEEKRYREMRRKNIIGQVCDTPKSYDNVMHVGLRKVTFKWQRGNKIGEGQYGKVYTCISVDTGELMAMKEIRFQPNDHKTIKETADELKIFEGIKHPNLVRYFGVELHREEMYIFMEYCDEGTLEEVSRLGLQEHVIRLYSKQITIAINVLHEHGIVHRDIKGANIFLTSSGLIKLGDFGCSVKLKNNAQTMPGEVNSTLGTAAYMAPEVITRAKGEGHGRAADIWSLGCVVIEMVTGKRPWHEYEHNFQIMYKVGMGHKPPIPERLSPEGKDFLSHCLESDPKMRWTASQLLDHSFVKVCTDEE

[6] = target: STE20-like serine/threonine-protein kinase (Homo sapiens, UniProt Q9H2G2)
[7] = target: Serine/threonine-protein kinase N2 (Homo sapiens, UniProt Q16513)
Serine/threonine-protein kinase N2, sequence (Q16513 whole entry): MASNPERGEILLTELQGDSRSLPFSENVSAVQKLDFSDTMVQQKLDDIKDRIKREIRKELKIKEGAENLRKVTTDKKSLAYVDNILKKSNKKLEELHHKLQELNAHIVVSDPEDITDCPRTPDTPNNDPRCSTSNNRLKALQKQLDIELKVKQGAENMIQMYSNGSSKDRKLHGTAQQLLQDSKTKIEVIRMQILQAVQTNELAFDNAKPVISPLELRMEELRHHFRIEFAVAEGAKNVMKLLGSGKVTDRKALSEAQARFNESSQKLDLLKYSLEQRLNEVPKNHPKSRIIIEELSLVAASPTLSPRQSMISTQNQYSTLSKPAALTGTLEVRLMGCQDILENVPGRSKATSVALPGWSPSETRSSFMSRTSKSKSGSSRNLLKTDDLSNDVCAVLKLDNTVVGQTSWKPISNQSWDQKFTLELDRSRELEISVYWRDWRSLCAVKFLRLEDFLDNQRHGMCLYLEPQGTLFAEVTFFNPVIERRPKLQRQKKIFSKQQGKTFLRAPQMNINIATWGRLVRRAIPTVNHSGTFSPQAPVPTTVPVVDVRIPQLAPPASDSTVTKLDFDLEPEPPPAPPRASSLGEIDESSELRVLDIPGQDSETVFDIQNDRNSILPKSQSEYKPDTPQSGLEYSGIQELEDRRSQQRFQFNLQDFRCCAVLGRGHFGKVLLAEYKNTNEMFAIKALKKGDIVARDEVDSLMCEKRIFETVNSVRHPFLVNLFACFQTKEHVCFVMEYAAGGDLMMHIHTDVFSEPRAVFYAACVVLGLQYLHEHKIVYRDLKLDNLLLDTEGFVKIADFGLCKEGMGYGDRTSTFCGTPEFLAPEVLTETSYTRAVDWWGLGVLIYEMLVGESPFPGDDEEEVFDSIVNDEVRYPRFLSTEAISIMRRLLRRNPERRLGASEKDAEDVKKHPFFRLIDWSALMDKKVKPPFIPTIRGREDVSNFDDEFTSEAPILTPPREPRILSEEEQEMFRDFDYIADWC

[8] = target: T3, Serine/threonine-protein kinase 3 (Homo sapiens, UniProt Q13188)
T3 sequence (Q13188 whole entry): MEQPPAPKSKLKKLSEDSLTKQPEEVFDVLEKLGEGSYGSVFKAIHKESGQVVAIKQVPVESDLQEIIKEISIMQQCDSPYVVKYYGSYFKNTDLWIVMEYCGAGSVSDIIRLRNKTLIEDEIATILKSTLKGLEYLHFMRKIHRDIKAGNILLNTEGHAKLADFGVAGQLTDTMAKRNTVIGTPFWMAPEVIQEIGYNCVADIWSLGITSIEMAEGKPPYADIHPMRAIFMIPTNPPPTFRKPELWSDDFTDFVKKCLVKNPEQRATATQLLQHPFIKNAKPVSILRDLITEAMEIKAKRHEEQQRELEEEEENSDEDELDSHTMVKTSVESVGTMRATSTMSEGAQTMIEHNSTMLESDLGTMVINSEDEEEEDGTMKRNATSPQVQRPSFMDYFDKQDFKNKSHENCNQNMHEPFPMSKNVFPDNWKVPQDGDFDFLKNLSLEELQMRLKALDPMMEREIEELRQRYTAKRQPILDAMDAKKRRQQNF
Also: in the data inactive means no Kd found up to 30 µM.

Eukaryotic translation initiation factor 2-alpha kinase 1, sequence (Q9BQI3 whole entry): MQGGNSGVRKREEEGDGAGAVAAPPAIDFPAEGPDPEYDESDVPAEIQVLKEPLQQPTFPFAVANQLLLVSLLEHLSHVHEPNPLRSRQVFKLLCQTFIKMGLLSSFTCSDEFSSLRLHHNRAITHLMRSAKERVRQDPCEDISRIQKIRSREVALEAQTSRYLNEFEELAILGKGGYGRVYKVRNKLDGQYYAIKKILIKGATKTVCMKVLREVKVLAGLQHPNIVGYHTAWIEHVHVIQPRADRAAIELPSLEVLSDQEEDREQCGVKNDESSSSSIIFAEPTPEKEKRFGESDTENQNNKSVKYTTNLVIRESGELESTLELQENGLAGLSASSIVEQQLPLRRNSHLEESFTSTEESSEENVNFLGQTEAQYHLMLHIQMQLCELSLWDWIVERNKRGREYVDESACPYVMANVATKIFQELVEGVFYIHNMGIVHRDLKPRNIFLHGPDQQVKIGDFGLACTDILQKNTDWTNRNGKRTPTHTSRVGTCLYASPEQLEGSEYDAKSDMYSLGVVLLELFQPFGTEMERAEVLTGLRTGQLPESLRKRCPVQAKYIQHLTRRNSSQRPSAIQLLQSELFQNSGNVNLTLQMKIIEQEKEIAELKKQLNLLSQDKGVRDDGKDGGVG

Kd [1] | Kd (Ephrin type-B receptor 3) | Kd [2] | Kd [3] | Kd [4] | Kd [5] | Kd [6] | Kd [7] | Kd [8] | pKd [4] | Compound | pKd (Ephrin type-B receptor 3)
> 30 µM (inactive) | > 30 µM (inactive) | > 30 µM (inactive) | > 30 µM (inactive) | > 30 µM (inactive) | > 30 µM (inactive) | > 30 µM (inactive) | > 30 µM (inactive) | > 30 µM (inactive) | – | COCCNCc1ccc(-c2cc3nccc(Oc4ccc(NC(=S)NC(=O)Cc5ccc(F)cc5)cc4F)c3s2)nc1 [GLESATINIB] | –
> 30 µM (inactive) | > 30 µM (inactive) | > 30 µM (inactive) | > 30 µM (inactive) | > 30 µM (inactive) | > 30 µM (inactive) | > 30 µM (inactive) | > 30 µM (inactive) | > 30 µM (inactive) | – | Cn1cc(-c2ccc3nnc(C(F)(F)c4ccc5ncccc5c4)n3n2)cn1 [JNJ-38877605] | –
> 30 µM (inactive) | > 30 µM (inactive) | > 30 µM (inactive) | > 30 µM (inactive) | > 30 µM (inactive) | > 30 µM (inactive) | > 30 µM (inactive) | > 30 µM (inactive) | > 30 µM (inactive) | – | Cn1cc(-c2ccc(F)c(C(F)(F)F)c2)nc1C1CCN(c2ncnc3[nH]ncc23)CC1 [LY-2584702] | –
> 30 µM (inactive) | > 30 µM (inactive) | > 30 µM (inactive) | > 30 µM (inactive) | > 30 µM (inactive) | > 30 µM (inactive) | > 30 µM (inactive) | > 30 µM (inactive) | > 30 µM (inactive) | – | C1=C/COCc2cc(ccc2OCCN2CCCC2)Nc2nccc(n2)-c2cccc(c2)COC/1 [PACRITINIB] | –
> 30 µM (inactive) | > 30 µM (inactive) | > 30 µM (inactive) | > 30 µM (inactive) | > 30 µM (inactive) | > 30 µM (inactive) | > 30 µM (inactive) | > 30 µM (inactive) | > 30 µM (inactive) | – | CNC(=O)c1ccc(C)c(-n2c(C)cc(OCc3ccc(F)cc3F)c(Br)c2=O)c1 [PH-797804] | –
> 30 µM (inactive) | > 30 µM (inactive) | > 30 µM (inactive) | > 30 µM (inactive) | > 30 µM (inactive) | > 30 µM (inactive) | > 30 µM (inactive) | > 30 µM (inactive) | > 30 µM (inactive) | – | CNC(=O)c1cc(Oc2ccc(NC(=O)Nc3ccc(Cl)c(C(F)(F)F)c3)c(F)c2)ccn1 [REGORAFENIB] | –

The remaining lines, values behind:

Compound | Kd [1] | Kd (Ephrin type-B receptor 3) | Kd [2] | Kd [3] | Kd [4] | Kd [5] | Kd [6] | Kd [7] | Kd [8] | pKd [4] | pKd (Ephrin type-B receptor 3)
O=C1NC(=O)/C(=C/c2ccc3nccc(-c4ccncc4)c3c2)S1 [GSK-1059615] | > 30 µM (inactive) | > 30 µM (inactive) | > 30 µM (inactive) | > 30 µM (inactive) | > 30 µM (inactive) | > 30 µM (inactive) | 4.32 µM (active) | > 30 µM (inactive) | > 30 µM (inactive) | – | –
CC[C@H](Nc1ncnc2[nH]cnc12)c1nc2cccc(F)c2c(=O)n1-c1ccccc1 [IDELALISIB] | > 30 µM (inactive) | > 30 µM (inactive) | > 30 µM (inactive) | > 30 µM (inactive) | > 30 µM (inactive) | > 30 µM (inactive) | > 30 µM (inactive) | > 30 µM (inactive) | > 30 µM (inactive) | – | –
COC(=O)[C@@]1(O)C[C@H]2O[C@]1(C)n1c3ccccc3c3c4c(c5c6ccccc6n2c5c31)C(=O)NC4 [K-252A] | > 30 µM (inactive) | > 30 µM (inactive) | 14.7 µM (active) | > 30 µM (inactive) | > 30 µM (inactive) | > 30 µM (inactive) | 3.3 µM (active) | 0.361 µM (active) | 0.043 µM (active) | – | –
COc1cc2nccc(Oc3ccc(NC(=O)NC4CC4)c(Cl)c3)c2cc1C(N)=O [LENVATINIB] | > 30 µM (inactive) | > 30 µM (inactive) | > 30 µM (inactive) | > 30 µM (inactive) | > 30 µM (inactive) | > 30 µM (inactive) | 3.85 µM (active) | > 30 µM (inactive) | > 30 µM (inactive) | – | –
Cc1c(F)cc(C(=O)NC2CC2)cc1-c1ccc(C(=O)NCC(C)(C)C)cn1 [LOSMAPIMOD] | > 30 µM (inactive) | > 30 µM (inactive) | > 30 µM (inactive) | > 30 µM (inactive) | – | > 30 µM (inactive) | > 30 µM (inactive) | > 30 µM (inactive) | > 30 µM (inactive) | 5.72 | –
O=C(O)[C@]1(Cc2cccc(Nc3nccs3)n2)CC[C@@H](Oc2cccc(Cl)c2F)CC1 [MK-5108] | > 30 µM (inactive) | > 30 µM (inactive) | > 30 µM (inactive) | > 30 µM (inactive) | > 30 µM (inactive) | > 30 µM (inactive) | > 30 µM (inactive) | > 30 µM (inactive) | 2.27 µM (active) | – | –
Cc1ccc(-n2nc(C(C)(C)C)cc2NC(=O)NCc2cc(F)ccc2Oc2ccc3c(cnn3CCO)c2)cc1 [PEXMETINIB] | > 30 µM (inactive) | – | > 30 µM (inactive) | > 30 µM (inactive) | > 30 µM (inactive) | > 30 µM (inactive) | > 30 µM (inactive) | > 30 µM (inactive) | > 30 µM (inactive) | – | 4.55
OCCn1cc(-c2cnc3nnn(Cc4ccc5ncccc5c4)c3n2)cn1 [PF-04217903] | > 30 µM (inactive) | > 30 µM (inactive) | > 30 µM (inactive) | > 30 µM (inactive) | > 30 µM (inactive) | > 30 µM (inactive) | > 30 µM (inactive) | > 30 µM (inactive) | > 30 µM (inactive) | – | –
C=CC(=O)N1CCC(Oc2cc3c(Nc4ccc(Cl)c(Cl)c4F)ncnc3cc2OC)CC1 [POZIOTINIB] | > 30 µM (inactive) | > 30 µM (inactive) | > 30 µM (inactive) | > 30 µM (inactive) | > 30 µM (inactive) | > 30 µM (inactive) | > 30 µM (inactive) | > 30 µM (inactive) | > 30 µM (inactive) | – | –
